We go through 9 compounds from ChEMBL document CHEMBL1806407, “Site-directed mutagenesis provides insights into the selective binding of trityl derivatives to Plasmodium falciparum dUTPase” (Eur J Med Chem, 2011).

pIC50, pKi: −log10 of the molar value.

Assay [1] is described as follows: Inhibition of recombinant wild type Plasmodium falciparum dUTPase expressed in Escherichia coli BL21(DE3) cells using dUTP as substrate by spectrophotometric analysis.
Assay [2] concerns the target dUTP pyrophosphatase (Plasmodium falciparum 3D7, UniProt Q8II92, F46A). The experiment in a line: Inhibition of recombinant Plasmodium falciparum dUTPase F46A mutant expressed in Escherichia coli BL21(DE3) cells using dUTP as substrate by spectrophotometric analysis.
The target of assay [3] is dUTP pyrophosphatase (Plasmodium falciparum 3D7, UniProt Q8II92, K96A). The experiment in a line: Inhibition of recombinant Plasmodium falciparum dUTPase K96A mutant expressed in Escherichia coli BL21(DE3) cells using dUTP as substrate by spectrophotometric analysis.
For assay [4], the target named is dUTP pyrophosphatase (Plasmodium falciparum 3D7, UniProt Q8II92, I117A). Put plainly: Inhibition of recombinant Plasmodium falciparum dUTPase I117A mutant expressed in Escherichia coli BL21(DE3) cells using dUTP as substrate by spectrophotometric analysis.
Assay [5] in a line: Selectivity index, ratio Ki for recombinant wild type Plasmodium falciparum dUTPase expressed in Escherichia coli BL21(DE3) cells to Ki for human dUTPase.
Assay [6] can be described thus: Selectivity index, ratio of Ki for recombinant Plasmodium falciparum dUTPase F46A mutant expressed in Escherichia coli BL21(DE3) cells to Ki for human dUTPase.
The nature of assay [7]: Selectivity index, ratio of Ki for recombinant Plasmodium falciparum dUTPase K96A mutant expressed in Escherichia coli BL21(DE3) cells to Ki for human dUTPase.
Assay [8] can be described thus: Selectivity index, ratio of Ki for recombinant Plasmodium falciparum dUTPase I117A mutant expressed in Escherichia coli BL21(DE3) cells to Ki for human dUTPase.
The test system of another assay is Plasmodium falciparum. Put plainly: Antimalarial activity against blood stage Plasmodium falciparum infected in human red blood cells […] by propidium iodide staining based microscopic analysis. The class given is functional, organism-based.
In assay [9] the target is T1, Deoxyuridine 5'-triphosphate nucleotidohydrolase, mitochondrial (Homo sapiens, UniProt P33316).
T1 sequence (P33316 whole entry): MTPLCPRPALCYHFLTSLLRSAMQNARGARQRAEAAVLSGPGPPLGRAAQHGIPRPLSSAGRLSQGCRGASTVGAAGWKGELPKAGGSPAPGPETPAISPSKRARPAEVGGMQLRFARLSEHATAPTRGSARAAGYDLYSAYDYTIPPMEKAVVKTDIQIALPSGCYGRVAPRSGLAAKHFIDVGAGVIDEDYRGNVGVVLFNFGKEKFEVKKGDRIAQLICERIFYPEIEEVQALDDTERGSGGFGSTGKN
The experiment in a line: Inhibition of human dUTPase using dUTP as substrate by spectrophotometric analysis.

Chain of dUTP pyrophosphatase (Plasmodium falciparum 3D7, UniProt Q8II92, I117A) (Q8II92 whole entry I117A): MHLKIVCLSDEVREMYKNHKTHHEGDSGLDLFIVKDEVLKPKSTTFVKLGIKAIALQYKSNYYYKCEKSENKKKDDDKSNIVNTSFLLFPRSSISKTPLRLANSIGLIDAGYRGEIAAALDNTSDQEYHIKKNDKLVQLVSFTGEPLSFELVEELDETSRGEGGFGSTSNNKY
Chain of dUTP pyrophosphatase (Plasmodium falciparum 3D7, UniProt Q8II92, F46A) (Q8II92 whole entry F46A): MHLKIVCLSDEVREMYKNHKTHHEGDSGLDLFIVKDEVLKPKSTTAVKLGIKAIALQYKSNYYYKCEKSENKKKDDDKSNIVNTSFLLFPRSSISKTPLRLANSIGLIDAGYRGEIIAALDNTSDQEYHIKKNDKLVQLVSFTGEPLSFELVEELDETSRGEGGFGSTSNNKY
Chain of dUTP pyrophosphatase (Plasmodium falciparum 3D7, UniProt Q8II92, K96A) (Q8II92 whole entry K96A): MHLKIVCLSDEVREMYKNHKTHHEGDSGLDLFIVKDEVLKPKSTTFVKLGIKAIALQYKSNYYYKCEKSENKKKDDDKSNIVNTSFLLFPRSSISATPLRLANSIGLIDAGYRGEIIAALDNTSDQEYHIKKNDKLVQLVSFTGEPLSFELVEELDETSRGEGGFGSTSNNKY

`O=c1ccn(CCCNC(c2ccccc2)(c2ccccc2)c2ccccc2)c(=O)[nH]1`: the pKi in assay [1] is 6.70; on dUTP pyrophosphatase [2], 4.55; on dUTP pyrophosphatase [3], 7.40; at dUTP pyrophosphatase [4], 6.22. The Ratio Ki in assay [5] was found to be 7; in assay [6], 0.04; in [7], 35; in [8] it was 2.4.
Turning to `O=c1ccn(CCC(CO)CNC(c2ccccc2)(c2ccccc2)c2ccccc2)c(=O)[nH]1` (centres undefined), the pKi in [1] was 6.70; at dUTP pyrophosphatase [2] it was 4.54; on dUTP pyrophosphatase [3], 7.40; on dUTP pyrophosphatase [4] it was 6.57. For the same compound, the Ratio Ki in [5] came out at 28; in [6], 0.19; in assay [7] it was 142; in [8], 21.
For `O=c1ccn([C@H]2C[C@H](O)[C@@H](CNC(c3ccccc3)(c3ccccc3)c3ccccc3)O2)c(=O)[nH]1`, the pKi in assay [1] is 6.62; on dUTP pyrophosphatase [2], 4.70; on dUTP pyrophosphatase [3], 6.96; at dUTP pyrophosphatase [4] it was 5.89. In addition, the Ratio Ki came to 192 in [5], 2.3 in [6], 418 in assay [7] and 35 in [8].
With `O=c1ccn(C/C=C/COC(c2ccccc2)(c2ccccc2)c2ccccc2)c(=O)[nH]1`, the pKi in [1] is 6.22; on dUTP pyrophosphatase [2], 5.22; at dUTP pyrophosphatase [3], 7.05; on dUTP pyrophosphatase [4], 6.10. Besides, the Ratio Ki in assay [5] was greater than 1670; in [6], greater than 167; in [7], greater than 11100; in [8], greater than 1250.
In turn, `CC(C)(C)[Si](OC[C@@H]1C=C[C@H](n2ccc(=O)[nH]c2=O)O1)(c1ccccc1)c1ccccc1` had a pIC50 in the assay with Plasmodium falciparum of 5.52. In addition, the pKi is 5.92 in [1]; 4.77 at dUTP pyrophosphatase [2]; 6.68 at dUTP pyrophosphatase [3]; 6.10 on dUTP pyrophosphatase [4]; less than 3.00 in assay [9]. In addition, the Ratio Ki in assay [5] is greater than 833; in assay [6], greater than 59; in assay [7], greater than 2560; in assay [8] it was greater than 1250.
`O=c1ccn(CCCCCCNC(c2ccccc2)(c2ccccc2)c2ccccc2)c(=O)[nH]1`: the pKi is 5.74 in [1], 4.46 at dUTP pyrophosphatase [2], 6.82 on dUTP pyrophosphatase [3] and 5.36 at dUTP pyrophosphatase [4]. Moreover, the Ratio Ki in assay [5] is greater than 556; in assay [6], greater than 29; in assay [7] it was greater than 6670; in assay [8], greater than 227.
As to `O=c1ccn([C@H]2C[C@H](F)[C@@H](COC(c3ccccc3)(c3ccccc3)c3ccccc3)O2)c(=O)[nH]1`, the pKi in assay [1] is 5.30; at dUTP pyrophosphatase [2], 3.65; at dUTP pyrophosphatase [3], 5.32; on dUTP pyrophosphatase [4] it was 3.39. Besides, the Ratio Ki came out at 91 in [5], 2 in assay [6], 95 in assay [7] and 1.1 in [8].
The compound `O=c1ccn([C@H]2C=C[C@@H](COC(c3ccccc3)(c3ccccc3)c3ccccc3)O2)c(=O)[nH]1` had a pIC50 in the assay with Plasmodium falciparum of less than 4.96. In addition, the pKi was 5.72 in assay [1]; 4.69 at dUTP pyrophosphatase [2]; 6.41 on dUTP pyrophosphatase [3]; 5.80 on dUTP pyrophosphatase [4]; 3.80 in [9]. In addition, the Ratio Ki is 83 in [5], 8 in [6], 402 in assay [7] and 98 in assay [8].
For the compound `O=c1ccn(COCCOC(c2ccccc2)(c2ccccc2)c2ccccc2)c(=O)[nH]1`, the pKi was 6.15 in [1], 4.89 at dUTP pyrophosphatase [2] and 5.10 on dUTP pyrophosphatase [4]. Besides, the Ratio Ki in [5] stood at 24; in [6] it was 1.3; in [8] it was 2.1.

The term pKi denotes −log10 of the Ki, conventionally taken in molar units. A word on the pIC50: it is the IC50 on a negative log10 scale, so that one unit is a factor of ten. A low value points to a high IC50.
